Experimental data as given in publication PMC8351594, “Design of Novel Amphipathic α-Helical Antimicrobial Peptides with No Toxicity as Therapeutics against the Antibiotic-Resistant Gram-Negative Bacterial Pathogen, Acinetobacter Baumannii” (Journal of medicinal chemistry and drug design, 2019).
Values after ≈ are worked out from the molar mass of the structure shown. Square brackets hold non-standard residues; d marks the D form. Peptide text beside a SMILES is read from it. Dab = NCC[C@H](N)C(=O)O; Dap = NC[C@H](N)C(=O)O

Tests used:
Conditions in all cases: Mueller-Hinton medium, 37°C, 24 h, inoculum 5 × 10^5 CFU/mL; MIC based on three sets of determinations
[1] = system: Acinetobacter baumannii MB9963
Method: (§1) The A. baumannii strains used in this study consisted of seven strains resistant to Polymyxin B and Colistin (antibiotics of last resort) obtained from MERCK (M89941, M89949, M89951, M89952, M89953, M89955 and M89963). The MICGM in this case is the geometric mean MIC from the seven Acinetobacter baumannii strains used in this study.
(§2) The minimal inhibitory concentration (MIC) is defined as the lowest peptide concentration that inhibited bacterial growth. MICs were measured by a standard microtiter dilution method in Mueller Hinton (MH) medium. Briefly, cells were grown overnight at 37°C in MH broth and were diluted in the same medium. […] The plates were incubated at 37°C for 24h, and the MICs were determined. The MICGM is the geometric mean of the number of MIC values.

[2] = system: Acinetobacter baumannii MB9952
Method: as §1, §2

[3] = system: Acinetobacter baumannii MB9949
Method: as §1, §2

[4] = system: Acinetobacter baumannii MB9953
Method: as §1, §2

[5] = system: Acinetobacter baumannii MB9941
Method: as §1, §2

[6] = system: Acinetobacter baumannii MB9951
Method: as §1, §2

[7] = system: Acinetobacter baumannii MB9955
Method: as §1, §2

Structure (SMILES) | MIC MB9963 [1] [µM] | MIC MB9952 [2] [µM] | MIC MB9949 [3] [µM] | MIC MB9953 [4] [µM] | MIC MB9941 [5] [µM] | MIC MB9951 [6] [µM] | MIC MB9955 [7] [µM]
CC(=O)N[C@H](CCCCN)C(=O)N[C@H](CC(C)C)C(=O)N[C@@H](CCN)C(=O)N[C@H](CO)C(=O)N[C@H](CC(C)C)C(=O)N[C@H](CC(C)C)C(=O)N[C@@H](CCN)C(=O)N[C@@H](C(=O)N[C@H](CC(C)C)C(=O)N[C@H](CO)C(=O)N[C@H](C)C(=O)N[C@H](C)C(=O)N[C@H](CCCCN)C(=O)N[C@@H](CCN)C(=O)N[C@@H](CCN)C(=O)N[C@H](CCCCN)C(=O)N[C@H](CC(C)C)C(=O)N[C@H](C)C(=O)N[C@@H](C(=O)N[C@H](CC(C)C)C(=O)N[C@H](CC(C)C)C(=O)N[C@@H](CCN)C(=O)N[C@H](C)C(=O)N[C@H](CC(C)C)C(=O)N[C@H](CO)C(=O)N[C@H](CO)C(N)=O)[C@H](C)O)[C@H](C)O [D104(Lys^1Ser^26-5 Dab-2)] (Ac-[dK][dL][Dab][dS][dL][dL][Dab][dT][dL][dS][dA][dA][dK][Dab][Dab][dK][dL][dA][dT][dL][dL][Dab][dA][dL][dS][dS]-NH2) | 0.7 (≈ 1.88 µg/mL) | 0.7 (≈ 1.88 µg/mL) | 0.7 (≈ 1.88 µg/mL) | 1.5 (≈ 4.03 µg/mL) | 0.7 (≈ 1.88 µg/mL) | 0.7 (≈ 1.88 µg/mL) | 0.7 (≈ 1.88 µg/mL)
CC(=O)N[C@H](CCCCN)C(=O)N[C@H](CC(C)C)C(=O)N[C@@H](CCN)C(=O)N[C@H](CO)C(=O)N[C@H](CC(C)C)C(=O)N[C@H](CC(C)C)C(=O)N[C@@H](CCN)C(=O)N[C@@H](C(=O)N[C@H](CC(C)C)C(=O)N[C@H](CO)C(=O)N[C@H](C)C(=O)N[C@H](C)C(=O)N[C@H](CCCCN)C(=O)N[C@@H](CCN)C(=O)N[C@@H](CCN)C(=O)N[C@H](CCCCN)C(=O)N[C@H](CC(C)C)C(=O)N[C@H](C)C(=O)N[C@@H](C(=O)N[C@H](CC(C)C)C(=O)N[C@H](CC(C)C)C(=O)N[C@@H](CCN)C(=O)N[C@H](C)C(=O)N[C@H](CC(C)C)C(=O)N[C@H](CO)C(=O)N[C@@H](CCN)C(N)=O)[C@H](C)O)[C@H](C)O [D89(Lys^1-6 Dab-2)] (Ac-[dK][dL][Dab][dS][dL][dL][Dab][dT][dL][dS][dA][dA][dK][Dab][Dab][dK][dL][dA][dT][dL][dL][Dab][dA][dL][dS][Dab]-NH2) | 0.7 (≈ 1.89 µg/mL) | 0.7 (≈ 1.89 µg/mL) | 0.7 (≈ 1.89 µg/mL) | 0.7 (≈ 1.89 µg/mL) | 0.7 (≈ 1.89 µg/mL) | 0.7 (≈ 1.89 µg/mL) | 0.7 (≈ 1.89 µg/mL)
CC(=O)N[C@H](CCCCN)C(=O)N[C@H](CC(C)C)C(=O)N[C@H](CCCCN)C(=O)N[C@H](CO)C(=O)N[C@H](CC(C)C)C(=O)N[C@H](CC(C)C)C(=O)N[C@H](CCCCN)C(=O)N[C@@H](C(=O)N[C@H](CC(C)C)C(=O)N[C@H](CO)C(=O)N[C@H](CCCCN)C(=O)N[C@H](C)C(=O)N[C@H](CCCCN)C(=O)N[C@H](C)C(=O)N[C@H](C)C(=O)N[C@H](CCCCN)C(=O)N[C@H](CC(C)C)C(=O)N[C@H](CCCCN)C(=O)N[C@@H](C(=O)N[C@H](CC(C)C)C(=O)N[C@H](CC(C)C)C(=O)N[C@H](CCCCN)C(=O)N[C@H](C)C(=O)N[C@H](CC(C)C)C(=O)N[C@H](CO)C(=O)N[C@H](CO)C(N)=O)[C@H](C)O)[C@H](C)O [D101(Lys^1Ser^26-5 Lys-1)] (Ac-[dK][dL][dK][dS][dL][dL][dK][dT][dL][dS][dK][dA][dK][dA][dA][dK][dL][dK][dT][dL][dL][dK][dA][dL][dS][dS]-NH2) | 0.7 (≈ 1.98 µg/mL) | 0.7 (≈ 1.98 µg/mL) | 0.7 (≈ 1.98 µg/mL) | 1.5 (≈ 4.24 µg/mL) | 0.7 (≈ 1.98 µg/mL) | 0.7 (≈ 1.98 µg/mL) | 0.7 (≈ 1.98 µg/mL)
CC(=O)N[C@H](CCCCN)C(=O)N[C@H](CC(C)C)C(=O)N[C@@H](CN)C(=O)N[C@H](CO)C(=O)N[C@H](CC(C)C)C(=O)N[C@H](CC(C)C)C(=O)N[C@@H](CN)C(=O)N[C@@H](C(=O)N[C@H](CC(C)C)C(=O)N[C@H](CO)C(=O)N[C@H](C)C(=O)N[C@H](C)C(=O)N[C@H](CCCCN)C(=O)N[C@@H](CN)C(=O)N[C@@H](CN)C(=O)N[C@H](CCCCN)C(=O)N[C@H](CC(C)C)C(=O)N[C@H](C)C(=O)N[C@@H](C(=O)N[C@H](CC(C)C)C(=O)N[C@H](CC(C)C)C(=O)N[C@@H](CN)C(=O)N[C@H](C)C(=O)N[C@H](CC(C)C)C(=O)N[C@H](CO)C(=O)N[C@@H](CN)C(N)=O)[C@H](C)O)[C@H](C)O [D106(Lys^1-6 Dap-2)] (Ac-[dK][dL][Dap][dS][dL][dL][Dap][dT][dL][dS][dA][dA][dK][Dap][Dap][dK][dL][dA][dT][dL][dL][Dap][dA][dL][dS][Dap]-NH2) | 0.8 (≈ 2.09 µg/mL) | 0.8 (≈ 2.09 µg/mL) | 0.8 (≈ 2.09 µg/mL) | 0.8 (≈ 2.09 µg/mL) | 0.8 (≈ 2.09 µg/mL) | 1.5 (≈ 3.92 µg/mL) | 0.4 (≈ 1.05 µg/mL)
CC(=O)N[C@H](CCCCN)C(=O)N[C@H](CC(C)C)C(=O)N[C@H](CCCCN)C(=O)N[C@H](CO)C(=O)N[C@H](CC(C)C)C(=O)N[C@H](CC(C)C)C(=O)N[C@H](CCCCN)C(=O)N[C@@H](C(=O)N[C@H](CC(C)C)C(=O)N[C@H](CO)C(=O)N[C@H](CCCCN)C(=O)N[C@H](C)C(=O)N[C@H](CCCCN)C(=O)N[C@H](C)C(=O)N[C@H](C)C(=O)N[C@H](CCCCN)C(=O)N[C@H](CC(C)C)C(=O)N[C@H](CCCCN)C(=O)N[C@@H](C(=O)N[C@H](CC(C)C)C(=O)N[C@H](CC(C)C)C(=O)N[C@H](CCCCN)C(=O)N[C@H](C)C(=O)N[C@H](CC(C)C)C(=O)N[C@H](CO)C(=O)N[C@H](CCCCN)C(N)=O)[C@H](C)O)[C@H](C)O [D84(Lys^1-6 Lys-1)] (Ac-[dK][dL][dK][dS][dL][dL][dK][dT][dL][dS][dK][dA][dK][dA][dA][dK][dL][dK][dT][dL][dL][dK][dA][dL][dS][dK]-NH2) | 0.7 (≈ 2.01 µg/mL) | 0.7 (≈ 2.01 µg/mL) | 0.7 (≈ 2.01 µg/mL) | 0.7 (≈ 2.01 µg/mL) | 0.3 (≈ 0.86 µg/mL) | 0.3 (≈ 0.86 µg/mL) | 0.3 (≈ 0.86 µg/mL)
CC(=O)N[C@H](CCCCN)C(=O)N[C@H](CC(C)C)C(=O)N[C@@H](CCN)C(=O)N[C@H](CO)C(=O)N[C@H](CC(C)C)C(=O)N[C@H](CC(C)C)C(=O)N[C@@H](CCN)C(=O)N[C@@H](C(=O)N[C@H](CC(C)C)C(=O)N[C@H](CO)C(=O)N[C@@H](CCN)C(=O)N[C@H](C)C(=O)N[C@H](CCCCN)C(=O)N[C@H](C)C(=O)N[C@H](C)C(=O)N[C@H](CCCCN)C(=O)N[C@H](CC(C)C)C(=O)N[C@@H](CCN)C(=O)N[C@@H](C(=O)N[C@H](CC(C)C)C(=O)N[C@H](CC(C)C)C(=O)N[C@@H](CCN)C(=O)N[C@H](C)C(=O)N[C@H](CC(C)C)C(=O)N[C@H](CO)C(=O)N[C@@H](CCN)C(N)=O)[C@H](C)O)[C@H](C)O [D86(Lys^1-6 Dab-1)] (Ac-[dK][dL][Dab][dS][dL][dL][Dab][dT][dL][dS][Dab][dA][dK][dA][dA][dK][dL][Dab][dT][dL][dL][Dab][dA][dL][dS][Dab]-NH2) | 0.8 (≈ 2.16 µg/mL) | 0.8 (≈ 2.16 µg/mL) | 0.8 (≈ 2.16 µg/mL) | 0.8 (≈ 2.16 µg/mL) | 1.5 (≈ 4.05 µg/mL) | 0.8 (≈ 2.16 µg/mL) | 0.8 (≈ 2.16 µg/mL)
CC(=O)N[C@H](CCCCN)C(=O)N[C@H](CC(C)C)C(=O)N[C@H](CCCCN)C(=O)N[C@H](CO)C(=O)N[C@H](CC(C)C)C(=O)N[C@H](CC(C)C)C(=O)N[C@H](CCCCN)C(=O)N[C@@H](C(=O)N[C@H](CC(C)C)C(=O)N[C@H](CO)C(=O)N[C@H](C)C(=O)N[C@H](C)C(=O)N[C@H](CCCCN)C(=O)N[C@H](CCCCN)C(=O)N[C@H](CCCCN)C(=O)N[C@H](CCCCN)C(=O)N[C@H](CC(C)C)C(=O)N[C@H](C)C(=O)N[C@@H](C(=O)N[C@H](CC(C)C)C(=O)N[C@H](CC(C)C)C(=O)N[C@H](CCCCN)C(=O)N[C@H](C)C(=O)N[C@H](CC(C)C)C(=O)N[C@H](CO)C(=O)N[C@H](CCCCN)C(N)=O)[C@H](C)O)[C@H](C)O [D88(Lys^1-6 Lys-2)] (Ac-[dK][dL][dK][dS][dL][dL][dK][dT][dL][dS][dA][dA][dK][dK][dK][dK][dL][dA][dT][dL][dL][dK][dA][dL][dS][dK]-NH2) | 0.4 (≈ 1.15 µg/mL) | 0.3 (≈ 0.86 µg/mL) | 0.7 (≈ 2.01 µg/mL) | 0.3 (≈ 0.86 µg/mL) | 0.7 (≈ 2.01 µg/mL) | 0.3 (≈ 0.86 µg/mL) | 0.3 (≈ 0.86 µg/mL)
